Laboratory results: the NIST ThermoML archive (doi:10.1016/j.jct.2017.11.004)
Where “and” joins values, the source holds several entries; their conditions need not be identical. Identical values can stand only once. ± gives the expanded uncertainty stated by the source.

Conditions: Crystal, Rate of evaporation

[Ar] [argon]
Conditions | vapor or sublimation pressure
27.51 K | 1.95e-09 ± 3.3e-10 kPa and 1.73e-09 ± 4.6e-10 kPa
28.01 K | 3.29e-09 ± 4.9e-10 kPa and 3.3e-09 ± 5.6e-10 kPa
28.5 K | 5.92e-09 ± 1.3e-09 kPa
28.51 K | 5.83e-09 ± 6.1e-10 kPa
29 K | 1.028e-08 ± 1.2e-09 kPa
29.01 K | 1.035e-08 ± 1.1e-09 kPa
29.5 K | 1.808e-08 ± 1.7e-09 kPa
29.51 K | 1.812e-08 ± 1.6e-09 kPa
30 K | 3.105e-08 ± 4.4e-09 kPa and 3.116e-08 ± 3.5e-09 kPa
30.49 K | 5.189e-08 ± 5.4e-09 kPa
30.5 K | 5.157e-08 ± 6.5e-09 kPa
30.99 K | 8.27e-08 ± 1.2e-08 kPa
31 K | 8.469e-08 ± 2.1e-08 kPa

O=C=O [carbon dioxide]
Conditions | vapor or sublimation pressure
80.03 K | 7.21e-09 ± 8.9e-10 kPa
80.53 K | 8.98e-09 ± 8.5e-10 kPa and 8.61e-09 ± 1e-09 kPa
81.03 K | 1.11e-08 ± 1.3e-09 kPa and 1.252e-08 ± 1.1e-09 kPa
81.52 K | 1.416e-08 ± 1.6e-09 kPa and 1.56e-08 ± 1.4e-09 kPa
82.02 K | 1.819e-08 ± 2.1e-09 kPa and 1.911e-08 ± 1.6e-09 kPa
82.52 K | 2.353e-08 ± 2.7e-09 kPa and 2.519e-08 ± 2.1e-09 kPa
83.02 K | 2.981e-08 ± 3.3e-09 kPa and 3.328e-08 ± 2.8e-09 kPa
83.53 K | 3.967e-08 ± 4.4e-09 kPa and 4.446e-08 ± 3.7e-09 kPa
84.03 K | 5.272e-08 ± 1e-08 kPa and 5.947e-08 ± 7.3e-09 kPa
84.53 K | 6.988e-08 ± 7.7e-09 kPa and 6.758e-08 ± 5.5e-09 kPa

[Kr] [krypton]
Conditions | vapor or sublimation pressure
38.5 K | 1.68e-09 ± 2.9e-10 kPa and 1.86e-09 ± 3e-10 kPa
39 K | 2.84e-09 ± 3.7e-10 kPa and 2.68e-09 ± 3.6e-10 kPa
39.49 K | 4.01e-09 ± 4.7e-10 kPa
39.5 K | 4.34e-09 ± 4.9e-10 kPa
39.99 K | 6.3e-09 ± 6.4e-10 kPa
40 K | 6.56e-09 ± 6.6e-10 kPa
40.49 K | 9.97e-09 ± 9.3e-10 kPa and 9.68e-09 ± 9.1e-10 kPa
41 K | 1.527e-08 ± 1.4e-09 kPa and 1.475e-08 ± 1.4e-09 kPa
41.5 K | 2.312e-08 ± 2e-09 kPa and 2.262e-08 ± 2e-09 kPa
42 K | 3.529e-08 ± 3.2e-09 kPa and 3.422e-08 ± 2.8e-09 kPa
42.5 K | 5.406e-08 ± 4.3e-09 kPa
42.51 K | 5.092e-08 ± 4.1e-09 kPa

[Ne] [neon]
Conditions | vapor or sublimation pressure [kPa]
8.004 K | 2.98e-08 ± 9.8e-09
8.251 K | 6.87e-08 ± 1.8e-08
8.502 K | 1.633e-07 ± 4.3e-08
8.749 K | 3.617e-07 ± 1.3e-07
8.792 K | 4.482e-07 ± 1.1e-07
8.996 K | 9.17e-07 ± 7.4e-08
9.046 K | 9.212e-07 ± 7.3e-08
9.251 K | 1.832e-06 ± 3.5e-07
9.468 K | 2.529e-06 ± 1.4e-06
9.518 K | 3.574e-06 ± 1.3e-06
9.727 K | 5.097e-06 ± 1.3e-06
9.776 K | 6.564e-06 ± 2.2e-06

N#N [nitrogen]
Conditions | vapor or sublimation pressure [kPa]
23.5 K | 1.9e-10 ± 1.9e-10
23.51 K | 1.5e-10 ± 1.8e-10
24 K | 4e-10 ± 2.9e-10
24.5 K | 8.2e-10 ± 5.3e-10
25 K | 1.66e-09 ± 1e-09
25.49 K | 3.24e-09 ± 2e-09
25.99 K | 6.63e-09 ± 4e-09
26.48 K | 1.287e-08 ± 7.8e-09
26.99 K | 2.45e-08 ± 1.5e-08
27.48 K | 3.89e-08 ± 2.4e-08

O=O [oxygen]
Conditions | vapor or sublimation pressure
28.99 K | 1.81e-09 ± 7.7e-10 kPa
29.48 K | 5.02e-09 ± 2.1e-09 kPa and 3.06e-09 ± 1.3e-09 kPa
29.98 K | 5.64e-09 ± 2.3e-09 kPa
29.99 K | 8.75e-09 ± 3.6e-09 kPa
30.47 K | 1.01e-08 ± 4.1e-09 kPa and 1.531e-08 ± 6.2e-09 kPa
30.98 K | 1.855e-08 ± 7.6e-09 kPa and 2.698e-08 ± 1.1e-08 kPa
31.48 K | 3.339e-08 ± 1.4e-08 kPa and 4.84e-08 ± 2e-08 kPa
31.77 K | 8.494e-08 ± 3.5e-08 kPa
31.98 K | 5.894e-08 ± 2.4e-08 kPa
32.48 K | 1.034e-07 ± 4.2e-08 kPa and 1.469e-07 ± 6e-08 kPa
32.98 K | 1.632e-07 ± 6.6e-08 kPa

O [water]
Conditions | vapor or sublimation pressure
154.97 K | 3.289e-08 ± 7.3e-09 kPa and 2.922e-08 ± 6.5e-09 kPa
155.96 K | 4.124e-08 ± 8.6e-09 kPa
156.96 K | 5.337e-08 ± 1.3e-08 kPa
156.97 K | 6.144e-08 ± 1.3e-08 kPa
157.96 K | 7.108e-08 ± 1.5e-08 kPa
158.97 K | 9.378e-08 ± 2e-08 kPa
159.96 K | 1.174e-07 ± 2.5e-08 kPa
159.98 K | 1.185e-07 ± 2.5e-08 kPa
160.47 K | 1.414e-07 ± 2.9e-08 kPa
160.96 K | 1.421e-07 ± 3.3e-08 kPa
160.97 K | 1.636e-07 ± 3.4e-08 kPa
161.47 K | 1.872e-07 ± 3.9e-08 kPa

[Xe] [xenon]
Conditions | vapor or sublimation pressure
50.01 K | 4.67e-10 ± 1.9e-10 kPa and 4.85e-10 ± 1.9e-10 kPa
51.02 K | 1.113e-09 ± 2.4e-10 kPa and 1.049e-09 ± 2.4e-10 kPa
52.02 K | 2.544e-09 ± 3.5e-10 kPa
52.52 K | 2.776e-09 ± 3.7e-10 kPa and 3.083e-09 ± 3.9e-10 kPa
53.02 K | 4.226e-09 ± 4.8e-10 kPa and 4.645e-09 ± 5.1e-10 kPa
53.52 K | 5.796e-09 ± 6e-10 kPa and 5.947e-09 ± 6.2e-10 kPa
54.02 K | 8.078e-09 ± 7.8e-10 kPa and 8.286e-09 ± 8e-10 kPa
54.52 K | 1.126e-08 ± 1e-09 kPa and 1.15e-08 ± 1e-09 kPa
55.02 K | 1.528e-08 ± 1.3e-09 kPa and 1.544e-08 ± 1.4e-09 kPa
55.52 K | 2.113e-08 ± 1.8e-09 kPa
56.02 K | 2.907e-08 ± 2.4e-09 kPa and 2.973e-08 ± 2.5e-09 kPa
56.52 K | 3.938e-08 ± 3.2e-09 kPa
56.53 K | 4.024e-08 ± 3.3e-09 kPa
57.03 K | 5.416e-08 ± 4.4e-09 kPa and 5.32e-08 ± 4.3e-09 kPa
